In ChEMBL document CHEMBL1208782, “Synthesis and pharmacological validation of a novel series of non-steroidal FXR agonists” (Bioorg Med Chem Lett, 2010):

What was measured:
Format in all cases: functional, cell-based
Bile acid receptor = target: T1, Bile acid receptor (Homo sapiens, UniProt Q96RI1); assay: Agonist activity at human full length FXR transfected in HEK293 cells coexpressing pTRexDest/pGL2promotor assessed as luciferase activity by direct reporter cellular assay; details: read-out: EC50
T1 sequence (Q96RI1 whole entry): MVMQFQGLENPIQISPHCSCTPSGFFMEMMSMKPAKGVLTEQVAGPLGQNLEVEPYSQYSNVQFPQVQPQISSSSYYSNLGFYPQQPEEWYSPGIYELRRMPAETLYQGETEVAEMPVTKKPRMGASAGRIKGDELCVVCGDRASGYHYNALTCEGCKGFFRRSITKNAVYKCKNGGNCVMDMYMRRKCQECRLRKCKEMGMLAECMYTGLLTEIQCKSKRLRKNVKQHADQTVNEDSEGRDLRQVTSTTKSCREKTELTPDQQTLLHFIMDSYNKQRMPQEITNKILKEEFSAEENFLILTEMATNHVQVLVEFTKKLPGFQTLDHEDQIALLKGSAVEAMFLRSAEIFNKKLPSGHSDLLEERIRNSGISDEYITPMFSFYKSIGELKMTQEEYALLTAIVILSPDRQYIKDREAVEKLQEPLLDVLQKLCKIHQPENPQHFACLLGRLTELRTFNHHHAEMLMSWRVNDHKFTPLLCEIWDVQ

[1] = target: T2, Retinoic acid receptor RXR-alpha (Homo sapiens, UniProt P19793); assay: Agonist activity at RXRalpha-LBD expressed in HEK293 cells assessed as Gal4-DBD interaction by cellular mammalian one hybrid assay
T2 sequence (P19793 whole entry): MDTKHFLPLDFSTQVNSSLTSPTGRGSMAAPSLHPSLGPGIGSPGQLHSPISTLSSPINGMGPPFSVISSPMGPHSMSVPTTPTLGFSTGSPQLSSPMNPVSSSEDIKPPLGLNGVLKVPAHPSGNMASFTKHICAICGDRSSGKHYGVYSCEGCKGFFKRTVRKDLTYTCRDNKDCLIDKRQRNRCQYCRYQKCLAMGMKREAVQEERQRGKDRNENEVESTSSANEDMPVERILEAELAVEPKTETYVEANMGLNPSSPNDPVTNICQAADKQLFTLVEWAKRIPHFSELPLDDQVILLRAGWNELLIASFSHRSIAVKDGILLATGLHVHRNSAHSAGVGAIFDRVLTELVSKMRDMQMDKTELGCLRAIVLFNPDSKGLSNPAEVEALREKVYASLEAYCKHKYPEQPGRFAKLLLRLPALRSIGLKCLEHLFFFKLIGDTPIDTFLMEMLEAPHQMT

Vitamin D3 receptor = target: T3, Vitamin D3 receptor (Homo sapiens, UniProt P11473); assay: Agonist activity at VDR-LBD expressed in HEK293 cells assessed as Gal4-DBD interaction by cellular mammalian one hybrid assay
T3 sequence (P11473 whole entry): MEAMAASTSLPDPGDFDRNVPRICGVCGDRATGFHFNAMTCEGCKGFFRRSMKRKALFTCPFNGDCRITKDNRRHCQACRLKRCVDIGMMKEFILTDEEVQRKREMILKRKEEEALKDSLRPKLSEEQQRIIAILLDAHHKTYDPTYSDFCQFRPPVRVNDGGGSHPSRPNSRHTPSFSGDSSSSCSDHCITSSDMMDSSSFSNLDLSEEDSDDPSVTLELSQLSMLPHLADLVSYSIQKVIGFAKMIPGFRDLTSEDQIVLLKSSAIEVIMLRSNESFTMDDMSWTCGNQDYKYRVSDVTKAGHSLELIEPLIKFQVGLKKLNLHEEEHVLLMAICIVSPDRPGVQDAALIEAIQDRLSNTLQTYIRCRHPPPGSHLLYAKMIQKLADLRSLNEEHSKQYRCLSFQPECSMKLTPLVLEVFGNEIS

Estrogen receptor beta = Estrogen receptor beta (Homo sapiens, UniProt Q92731); assay: Agonist activity at ERbeta-LBD expressed in HEK293 cells assessed as Gal4-DBD interaction by cellular mammalian one hybrid assay relative to estradiol
[2] = target: T4, Retinoic acid receptor RXR-alpha (Homo sapiens) (UniProt P19793); assay: Agonist activity at RXRalpha-LBD expressed in HEK293 cells assessed as Gal4-DBD interaction by cellular mammalian one hybrid assay relative to retinoic acid
T4 sequence (whole entry): T2 sequence (P19793 whole entry)

[3] = target: T5, Oxysterols receptor LXR-beta (Homo sapiens) (UniProt P55055); assay: Agonist activity at LXRbeta-LBD expressed in HEK293 cells assessed as Gal4-DBD interaction by cellular mammalian one hybrid assay relative to T0901317
T5 sequence (whole entry): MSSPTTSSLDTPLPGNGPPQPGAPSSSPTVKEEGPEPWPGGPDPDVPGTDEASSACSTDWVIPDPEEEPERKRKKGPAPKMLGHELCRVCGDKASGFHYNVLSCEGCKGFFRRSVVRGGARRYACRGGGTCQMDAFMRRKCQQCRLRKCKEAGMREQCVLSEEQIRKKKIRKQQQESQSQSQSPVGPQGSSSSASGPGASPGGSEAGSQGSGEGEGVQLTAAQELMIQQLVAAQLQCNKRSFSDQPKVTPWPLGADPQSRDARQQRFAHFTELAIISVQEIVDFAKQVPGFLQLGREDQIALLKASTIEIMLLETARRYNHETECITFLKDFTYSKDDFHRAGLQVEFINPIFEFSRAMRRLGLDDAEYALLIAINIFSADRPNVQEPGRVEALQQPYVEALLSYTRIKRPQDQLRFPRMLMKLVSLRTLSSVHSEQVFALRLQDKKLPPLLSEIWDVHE

Chain of Estrogen receptor beta (Q92731 whole entry, the tested form may be a part): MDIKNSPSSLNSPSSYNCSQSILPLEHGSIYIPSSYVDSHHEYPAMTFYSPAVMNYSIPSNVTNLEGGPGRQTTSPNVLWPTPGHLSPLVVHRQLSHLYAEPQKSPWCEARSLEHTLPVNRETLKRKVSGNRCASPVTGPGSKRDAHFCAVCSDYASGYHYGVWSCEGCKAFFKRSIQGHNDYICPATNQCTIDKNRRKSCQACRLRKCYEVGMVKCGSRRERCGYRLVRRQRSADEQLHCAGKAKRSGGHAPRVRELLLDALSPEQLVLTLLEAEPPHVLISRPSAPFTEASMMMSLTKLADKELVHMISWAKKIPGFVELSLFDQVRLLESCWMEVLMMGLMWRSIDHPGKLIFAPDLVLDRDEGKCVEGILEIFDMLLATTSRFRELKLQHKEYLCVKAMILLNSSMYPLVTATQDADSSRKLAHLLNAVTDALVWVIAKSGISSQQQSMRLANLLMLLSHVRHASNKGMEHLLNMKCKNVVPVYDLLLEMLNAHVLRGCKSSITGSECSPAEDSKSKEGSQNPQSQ

EC50 (Bile acid receptor) [µM] | EC50 [1] [µM] | EC50 (Vitamin D3 receptor) [µM] | Efficacy (Estrogen receptor beta) [%] | Efficacy [2] [%] | Efficacy [3] [%] | Compound
0.006 | > 10 | > 10 | 0 | 0 | 0 | CN(Cc1ccc(C(=O)O)cc1)c1ccc(OCc2c(-c3c(Cl)cccc3Cl)noc2C2CC2)nc1C(F)(F)F
0.015 | > 10 | > 10 | 0 | 0 | 0 | CC(C)c1onc(-c2c(Cl)cccc2Cl)c1COc1ccc(N(C)Cc2ccc(C(=O)O)cc2)c(C(F)(F)F)n1
0.002 | > 10 | > 10 | 20 | 0 | 0 | CN(Cc1cccc(C(=O)O)c1)c1ccc(OCc2c(-c3c(Cl)cccc3Cl)noc2C2CC2)nc1C(F)(F)F
